Measurements as given in publication PMC8632988, “Inhibition of SYK and cSrc kinases can protect bone and cartilage in preclinical models of osteoarthritis and rheumatoid arthritis” (Scientific Reports, 2021).
“And” between values parts separate entries of the source, which are not always exact repeats. Identical values can stand only once. Like-named read-outs stand apart in the source and are kept apart here.

Legend:
Test in all cases: Kinase selectivity profile assay
Format in all cases: biochemical
ALK = molecular target: T1, ALK (Homo sapiens, UniProt Q9UM73); details: 500 nM; relative to DMSO; read-out: Residual enzymatic activity
T1 construct: purchased Reaction Biology Corporation
Protocol: (§1) The activity of MT-SYK-03 against cSrc kinase and selectivity profile towards other 341 kinases was determined at Reaction Biology Corporation (Malvern, PA, USA) using the standard kinase assay protocol. […]; unbound phosphate was removed by extensive washing of filters in phosphoric acid. Kinase activity data was expressed as the percent remaining kinase activity in test samples compared to vehicle (dimethyl sulfoxide) reactions based on the radioactivity of reaction products (see Table S2). Experiment was replicated twice.

ALK1/ACVRL1 = molecular target: T2, ALK1/ACVRL1 (Homo sapiens, UniProt P37023); details: 500 nM; relative to DMSO; read-out: Residual enzymatic activity
T2 construct: purchased Reaction Biology Corporation
Protocol: as §1

CAMK4 = molecular target: T3, CAMK4 (Homo sapiens, UniProt Q16566); details: 500 nM; relative to DMSO; read-out: Residual enzymatic activity
T3 construct: purchased Reaction Biology Corporation
Protocol: as §1

CDK1/cyclin E = molecular target: T4, CDK1/cyclin E (Homo sapiens, UniProt P06493); details: 500 nM; relative to DMSO; read-out: Residual enzymatic activity
T4 construct: purchased Reaction Biology Corporation
Protocol: as §1

CDK2/cyclin E = molecular target: T5, CDK2/cyclin E (Homo sapiens, UniProt P24941); details: 500 nM; relative to DMSO; read-out: Residual enzymatic activity
T5 construct: purchased Reaction Biology Corporation
Protocol: as §1

CDK6/cyclin D1 = molecular target: T6, CDK6/cyclin D1 (Homo sapiens, UniProt Q00534); details: 500 nM; relative to DMSO; read-out: Residual enzymatic activity
T6 construct: purchased Reaction Biology Corporation
Protocol: as §1

CDK7/cyclin H = molecular target: T7, CDK7/cyclin H (Homo sapiens, UniProt P50613); details: 500 nM; relative to DMSO; read-out: Residual enzymatic activity
T7 construct: purchased Reaction Biology Corporation
Protocol: as §1

CK1g1 = molecular target: T8, CK1g1 (Homo sapiens, UniProt Q9HCP0); details: 500 nM; relative to DMSO; read-out: Residual enzymatic activity
T8 construct: purchased Reaction Biology Corporation
T8 sequence (Q9HCP0 whole entry): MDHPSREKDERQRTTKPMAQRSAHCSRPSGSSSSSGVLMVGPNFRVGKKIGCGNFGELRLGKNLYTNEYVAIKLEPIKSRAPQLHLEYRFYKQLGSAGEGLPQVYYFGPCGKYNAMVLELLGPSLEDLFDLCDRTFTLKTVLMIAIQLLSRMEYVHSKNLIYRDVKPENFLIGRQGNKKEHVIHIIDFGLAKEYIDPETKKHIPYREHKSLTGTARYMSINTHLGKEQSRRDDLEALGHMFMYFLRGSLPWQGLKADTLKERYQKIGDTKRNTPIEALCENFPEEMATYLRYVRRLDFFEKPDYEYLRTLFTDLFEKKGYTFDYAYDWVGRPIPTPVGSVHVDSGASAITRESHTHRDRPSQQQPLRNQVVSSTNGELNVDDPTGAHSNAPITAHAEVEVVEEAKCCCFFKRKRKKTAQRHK
Protocol: as §1

DAPK1 = molecular target: T9, DAPK1 (Homo sapiens, UniProt P53355); details: 500 nM; relative to DMSO; read-out: Residual enzymatic activity
T9 construct: purchased Reaction Biology Corporation
Protocol: as §1

DDR1 = molecular target: T10, DDR1 (Homo sapiens, UniProt Q08345); details: for remaining activity at 0.5 µM: 500 nM, relative to DMSO, read-out: Residual enzymatic activity
T10 construct: purchased Reaction Biology Corporation (assay service)
T10 sequence (Q08345 19-913): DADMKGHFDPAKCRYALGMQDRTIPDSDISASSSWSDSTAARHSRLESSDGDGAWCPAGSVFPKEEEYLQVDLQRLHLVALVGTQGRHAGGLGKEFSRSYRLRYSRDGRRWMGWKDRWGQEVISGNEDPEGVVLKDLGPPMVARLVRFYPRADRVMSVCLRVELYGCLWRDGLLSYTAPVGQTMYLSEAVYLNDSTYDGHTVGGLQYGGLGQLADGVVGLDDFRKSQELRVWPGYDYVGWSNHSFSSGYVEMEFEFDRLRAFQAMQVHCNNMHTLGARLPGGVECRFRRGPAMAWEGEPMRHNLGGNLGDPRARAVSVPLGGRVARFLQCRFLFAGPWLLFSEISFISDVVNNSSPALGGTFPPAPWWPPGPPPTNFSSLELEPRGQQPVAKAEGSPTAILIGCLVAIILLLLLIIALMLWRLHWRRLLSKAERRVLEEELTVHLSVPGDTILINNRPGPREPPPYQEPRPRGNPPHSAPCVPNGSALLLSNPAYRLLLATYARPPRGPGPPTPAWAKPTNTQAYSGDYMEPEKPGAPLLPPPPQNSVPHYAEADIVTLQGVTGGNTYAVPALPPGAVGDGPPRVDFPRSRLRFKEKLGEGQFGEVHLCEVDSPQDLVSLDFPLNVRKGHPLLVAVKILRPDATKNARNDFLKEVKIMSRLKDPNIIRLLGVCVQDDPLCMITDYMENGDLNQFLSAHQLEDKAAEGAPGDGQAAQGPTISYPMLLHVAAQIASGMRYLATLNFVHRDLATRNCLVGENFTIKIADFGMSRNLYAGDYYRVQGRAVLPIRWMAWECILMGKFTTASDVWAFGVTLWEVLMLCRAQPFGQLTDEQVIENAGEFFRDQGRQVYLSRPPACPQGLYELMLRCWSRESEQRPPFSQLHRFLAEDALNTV
Protocol: as §1

EPHB2 = molecular target: T11, EPHB2 (Homo sapiens, UniProt P29323); details: 500 nM, relative to DMSO
T11 construct: purchased Reaction Biology Corporation
Protocol: as §1

ERBB4/HER4 = molecular target: T12, ERBB4/HER4 (Homo sapiens, UniProt Q15303); details: 500 nM; relative to DMSO; read-out: Residual enzymatic activity
T12 construct: purchased Reaction Biology Corporation
T12 sequence (Q15303 26-1308): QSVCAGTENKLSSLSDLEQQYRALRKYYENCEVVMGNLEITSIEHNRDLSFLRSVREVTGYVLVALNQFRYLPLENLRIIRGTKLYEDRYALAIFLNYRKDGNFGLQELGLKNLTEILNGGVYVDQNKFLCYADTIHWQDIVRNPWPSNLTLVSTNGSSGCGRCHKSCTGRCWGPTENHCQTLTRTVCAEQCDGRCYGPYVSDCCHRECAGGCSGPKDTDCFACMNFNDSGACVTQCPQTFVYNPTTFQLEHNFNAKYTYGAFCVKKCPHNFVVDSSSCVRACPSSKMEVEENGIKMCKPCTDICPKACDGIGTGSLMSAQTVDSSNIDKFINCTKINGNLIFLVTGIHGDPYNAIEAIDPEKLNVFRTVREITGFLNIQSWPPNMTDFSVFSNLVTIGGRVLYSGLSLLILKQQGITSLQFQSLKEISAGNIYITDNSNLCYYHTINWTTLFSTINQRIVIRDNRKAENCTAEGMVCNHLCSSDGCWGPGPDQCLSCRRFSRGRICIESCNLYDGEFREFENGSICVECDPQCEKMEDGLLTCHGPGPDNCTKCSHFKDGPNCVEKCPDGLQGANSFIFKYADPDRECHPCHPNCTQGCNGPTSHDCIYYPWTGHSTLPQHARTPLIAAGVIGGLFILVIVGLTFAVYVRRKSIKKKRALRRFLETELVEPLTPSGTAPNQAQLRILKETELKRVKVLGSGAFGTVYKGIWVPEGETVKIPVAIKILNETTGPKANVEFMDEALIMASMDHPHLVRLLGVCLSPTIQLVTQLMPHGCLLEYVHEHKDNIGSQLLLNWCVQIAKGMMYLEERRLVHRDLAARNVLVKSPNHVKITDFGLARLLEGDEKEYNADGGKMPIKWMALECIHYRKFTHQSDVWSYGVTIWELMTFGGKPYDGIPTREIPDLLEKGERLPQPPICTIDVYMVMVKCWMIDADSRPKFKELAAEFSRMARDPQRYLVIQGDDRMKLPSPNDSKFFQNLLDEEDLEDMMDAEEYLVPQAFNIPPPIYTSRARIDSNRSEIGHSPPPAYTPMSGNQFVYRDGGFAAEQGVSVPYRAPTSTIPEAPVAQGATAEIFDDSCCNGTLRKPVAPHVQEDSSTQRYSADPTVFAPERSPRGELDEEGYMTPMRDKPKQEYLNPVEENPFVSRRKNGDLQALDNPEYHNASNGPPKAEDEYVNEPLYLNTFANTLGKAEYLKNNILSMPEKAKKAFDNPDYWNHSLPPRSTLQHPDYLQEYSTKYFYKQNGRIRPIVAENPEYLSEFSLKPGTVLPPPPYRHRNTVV
Protocol: as §1

GRK6 = molecular target: T13, GRK6 (Homo sapiens, UniProt P43250); details: 500 nM; relative to DMSO; read-out: Residual enzymatic activity
T13 construct: purchased Reaction Biology Corporation
Protocol: as §1

HIPK2 = molecular target: T14, HIPK2 (Homo sapiens, UniProt Q9H2X6); details: 500 nM; relative to DMSO; read-out: Residual enzymatic activity
T14 construct: purchased Reaction Biology Corporation
Protocol: as §1

IKKb/IKBKB = molecular target: T15, IKKb/IKBKB (Homo sapiens, UniProt O14920); details: 500 nM; relative to DMSO; read-out: Residual enzymatic activity
T15 construct: purchased Reaction Biology Corporation
Protocol: as §1

IKKe/IKBKE = molecular target: T16, IKKe/IKBKE (Homo sapiens, UniProt Q14164); details: 500 nM; relative to DMSO; read-out: Residual enzymatic activity
T16 construct: purchased Reaction Biology Corporation
Protocol: as §1

IRAK4 = molecular target: T17, IRAK4 (Homo sapiens, UniProt Q9NWZ3); details: 500 nM; relative to DMSO; read-out: Residual enzymatic activity
T17 construct: purchased Reaction Biology Corporation
Protocol: as §1

LIMK1 = molecular target: T18, LIMK1 (Homo sapiens, UniProt P53667); details: for remaining activity at 0.5 µM: 500 nM, relative to DMSO, read-out: Residual enzymatic activity
T18 construct: purchased Reaction Biology Corporation (assay service)
T18 sequence (P53667 whole entry): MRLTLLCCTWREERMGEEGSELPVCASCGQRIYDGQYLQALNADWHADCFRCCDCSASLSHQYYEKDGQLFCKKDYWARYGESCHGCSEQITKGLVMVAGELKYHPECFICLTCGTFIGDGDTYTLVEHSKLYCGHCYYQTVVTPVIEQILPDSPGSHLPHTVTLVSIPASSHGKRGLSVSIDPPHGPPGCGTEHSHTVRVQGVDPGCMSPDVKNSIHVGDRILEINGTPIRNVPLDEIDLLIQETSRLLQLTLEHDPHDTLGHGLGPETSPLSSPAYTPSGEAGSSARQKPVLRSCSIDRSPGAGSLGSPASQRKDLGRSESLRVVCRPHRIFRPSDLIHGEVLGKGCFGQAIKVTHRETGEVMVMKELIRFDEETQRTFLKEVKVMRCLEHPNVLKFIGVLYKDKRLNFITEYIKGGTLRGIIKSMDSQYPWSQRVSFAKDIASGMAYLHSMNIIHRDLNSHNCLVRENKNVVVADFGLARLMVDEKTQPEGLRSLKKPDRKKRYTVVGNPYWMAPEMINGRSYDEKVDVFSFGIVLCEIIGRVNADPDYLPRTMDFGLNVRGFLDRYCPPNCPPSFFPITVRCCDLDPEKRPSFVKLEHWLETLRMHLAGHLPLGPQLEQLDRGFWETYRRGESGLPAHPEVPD
Protocol: as §1

LYN B = molecular target: T19, LYN B (Homo sapiens, UniProt P07948); details: for remaining activity at 0.5 µM: 500 nM, relative to DMSO, read-out: Residual enzymatic activity
T19 construct: purchased Reaction Biology Corporation (assay service)
T19 sequence (P07948 1-491 isoform P07948-2): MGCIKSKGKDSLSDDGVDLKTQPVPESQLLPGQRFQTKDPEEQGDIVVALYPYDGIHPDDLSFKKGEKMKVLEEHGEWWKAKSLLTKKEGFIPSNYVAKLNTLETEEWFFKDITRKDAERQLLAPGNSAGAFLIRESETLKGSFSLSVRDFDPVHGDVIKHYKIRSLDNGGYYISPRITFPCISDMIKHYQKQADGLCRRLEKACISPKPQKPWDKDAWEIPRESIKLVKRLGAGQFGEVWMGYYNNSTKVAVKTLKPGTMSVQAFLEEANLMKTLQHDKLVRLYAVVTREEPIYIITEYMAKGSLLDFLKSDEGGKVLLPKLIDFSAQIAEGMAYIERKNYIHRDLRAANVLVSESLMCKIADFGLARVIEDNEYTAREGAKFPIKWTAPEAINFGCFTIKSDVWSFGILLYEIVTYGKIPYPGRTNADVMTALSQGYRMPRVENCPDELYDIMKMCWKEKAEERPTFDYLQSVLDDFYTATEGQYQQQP
Protocol: as §1

MAPKAPK2 = molecular target: T20, MAPKAPK2 (Homo sapiens, UniProt P49137); details: 500 nM, relative to DMSO; for remaining activity at 0.5 µM: read-out: Residual enzymatic activity
T20 construct: purchased Reaction Biology Corporation
T20 sequence (P49137 whole entry): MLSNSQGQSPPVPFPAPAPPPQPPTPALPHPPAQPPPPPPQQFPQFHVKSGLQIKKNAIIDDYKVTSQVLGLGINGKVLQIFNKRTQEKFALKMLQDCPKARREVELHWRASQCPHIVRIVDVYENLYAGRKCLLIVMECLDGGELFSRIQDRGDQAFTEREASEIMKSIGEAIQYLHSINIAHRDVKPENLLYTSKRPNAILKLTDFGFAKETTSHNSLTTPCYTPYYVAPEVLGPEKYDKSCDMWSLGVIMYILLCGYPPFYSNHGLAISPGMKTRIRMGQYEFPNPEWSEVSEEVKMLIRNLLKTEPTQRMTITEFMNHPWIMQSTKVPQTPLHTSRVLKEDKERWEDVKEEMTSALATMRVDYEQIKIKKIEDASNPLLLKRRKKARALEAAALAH
Protocol: as §1

MAPKAPK3 = molecular target: T21, MAPKAPK3 (Homo sapiens, UniProt Q16644); details: 500 nM; relative to DMSO; read-out: Residual enzymatic activity
T21 construct: purchased Reaction Biology Corporation
T21 sequence (Q16644 whole entry): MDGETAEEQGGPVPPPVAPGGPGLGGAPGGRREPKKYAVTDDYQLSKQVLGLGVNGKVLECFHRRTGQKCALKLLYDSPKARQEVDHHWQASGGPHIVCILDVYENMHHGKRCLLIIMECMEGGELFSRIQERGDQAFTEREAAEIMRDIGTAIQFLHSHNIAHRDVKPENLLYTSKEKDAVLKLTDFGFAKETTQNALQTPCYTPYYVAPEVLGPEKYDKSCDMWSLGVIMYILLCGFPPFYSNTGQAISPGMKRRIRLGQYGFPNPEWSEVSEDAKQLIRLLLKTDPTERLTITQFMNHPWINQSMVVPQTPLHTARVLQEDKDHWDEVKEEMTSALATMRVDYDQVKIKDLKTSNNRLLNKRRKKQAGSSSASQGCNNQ
Protocol: as §1

MELK = molecular target: T22, MELK (Homo sapiens, UniProt Q14680); details: 500 nM; relative to DMSO; read-out: Residual enzymatic activity
T22 construct: purchased Reaction Biology Corporation
Protocol: as §1

NEK1 = molecular target: T23, NEK1 (Homo sapiens, UniProt Q96PY6); details: 500 nM; relative to DMSO; read-out: Residual enzymatic activity
T23 construct: purchased Reaction Biology Corporation
Protocol: as §1

PKAcg = molecular target: T24, PKAcg (Homo sapiens, UniProt P22612); details: 500 nM; relative to DMSO; read-out: Residual enzymatic activity
T24 construct: purchased Reaction Biology Corporation
T24 sequence (P22612 whole entry): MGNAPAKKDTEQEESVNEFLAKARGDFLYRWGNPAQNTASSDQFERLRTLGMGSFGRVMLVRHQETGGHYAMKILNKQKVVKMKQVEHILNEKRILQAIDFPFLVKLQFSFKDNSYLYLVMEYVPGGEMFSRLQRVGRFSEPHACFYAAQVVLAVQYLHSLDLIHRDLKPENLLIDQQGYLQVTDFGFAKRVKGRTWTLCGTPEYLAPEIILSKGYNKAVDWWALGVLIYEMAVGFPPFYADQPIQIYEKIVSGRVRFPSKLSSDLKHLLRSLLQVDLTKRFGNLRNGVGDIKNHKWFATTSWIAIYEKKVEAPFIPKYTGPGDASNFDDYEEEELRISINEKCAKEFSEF
Protocol: as §1

PKCiota = molecular target: T25, PKCiota (Homo sapiens, UniProt P41743); details: 500 nM; relative to DMSO; read-out: Residual enzymatic activity
T25 construct: purchased Reaction Biology Corporation
Protocol: as §1

PKCmu/PRKD1 = molecular target: T26, PKCmu/PRKD1 (Homo sapiens, UniProt Q15139); details: 500 nM; relative to DMSO; read-out: Residual enzymatic activity
T26 construct: purchased Reaction Biology Corporation
Protocol: as §1

PKCzeta = molecular target: T27, PKCzeta (Homo sapiens, UniProt Q05513); details: read-out: Residual enzymatic activity
T27 construct: purchased Reaction Biology Corporation
Protocol: as §1

PKN2/PRK2 = molecular target: T28, PKN2/PRK2 (Homo sapiens, UniProt Q16513); details: 500 nM; relative to DMSO; read-out: Residual enzymatic activity
T28 construct: purchased Reaction Biology Corporation
Protocol: as §1

SRMS = molecular target: T29, SRMS (Homo sapiens, UniProt Q9H3Y6); details: 500 nM; relative to DMSO; read-out: Residual enzymatic activity
T29 construct: purchased Reaction Biology Corporation
Protocol: as §1

VRK2 = molecular target: T30, VRK2 (Homo sapiens, UniProt Q86Y07); details: read-out: Residual enzymatic activity
T30 construct: purchased Reaction Biology Corporation
Protocol: as §1

[1] = 10-dose mode, threefold serial dilution from 10 μM

## COc1cc(Nc2ncnc(Nc3cc4c(cn3)NC(=O)C(C)(C)O4)n2)cc(OC)c1OC [MT-SYK-03]
ALK
  remaining activity at 0.5 µM: 96.5%
ALK1/ACVRL1
  remaining activity at 0.5 µM: 126%
CAMK4
  remaining activity at 0.5 µM: 111%
CDK1/cyclin E
  remaining activity at 0.5 µM: 94.6%
CDK2/cyclin E
  remaining activity at 0.5 µM: 82.1%
CDK6/cyclin D1
  remaining activity at 0.5 µM: 91.8%
CDK7/cyclin H
  remaining activity at 0.5 µM: 99.6%
CK1g1
  remaining activity at 0.5 µM: 93.5%
DAPK1
  remaining activity at 0.5 µM: 113%
DDR1
  remaining activity at 0.5 µM: 4.7%
DDR1; [1]
  IC50: 0.0018 µM
DDR1; read-out: Inhibition at 500 nM
  inhibition at 0.5 µM: > 90%
EPHB2
  Residual enzymatic activity: 77.7%
ERBB4/HER4
  remaining activity at 0.5 µM: 79.4%
GRK6
  remaining activity at 0.5 µM: 100%
HIPK2
  remaining activity at 0.5 µM: 103%
IKKb/IKBKB
  remaining activity at 0.5 µM: 94%
IKKe/IKBKE
  remaining activity at 0.5 µM: 77.5%
IRAK4
  remaining activity at 0.5 µM: 103%
LIMK1
  remaining activity at 0.5 µM: 11.4%
LIMK1; [1]
  IC50: 0.045 µM and 0.0446 µM
LYN B
  remaining activity at 0.5 µM: 25.7%
LYN B; [1]
  IC50: 0.0142 µM
MAPKAPK2
  Residual enzymatic activity: did not inhibit any
  remaining activity at 0.5 µM: 101%
MAPKAPK3
  remaining activity at 0.5 µM: 102%
MELK
  remaining activity at 0.5 µM: 86.6%
NEK1
  remaining activity at 0.5 µM: 52.7%
PKAcg
  remaining activity at 0.5 µM: 106%
PKCiota
  remaining activity at 0.5 µM: 102%
PKCmu/PRKD1
  remaining activity at 0.5 µM: 98.5%
PKCzeta; 500 nM, relative to DMSO
  remaining activity at 0.5 µM: 109%
PKN2/PRK2
  remaining activity at 0.5 µM: 95.6%
SRMS
  remaining activity at 0.5 µM: 99.7%
VRK2; 500 nM, relative to DMSO
  remaining activity at 0.5 µM: 129%

## COc1cc(Nc2ncc(F)c(Nc3ccc4c(n3)NC(=O)C(C)(C)O4)n2)cc(OC)c1OC [R406, reference compound]
ALK
  remaining activity at 0.5 µM: 41.2%
ALK1/ACVRL1
  remaining activity at 0.5 µM: 100%
CAMK4
  remaining activity at 0.5 µM: 120%
CDK1/cyclin E
  remaining activity at 0.5 µM: 76.5%
CDK2/cyclin E
  remaining activity at 0.5 µM: 60%
CDK6/cyclin D1
  remaining activity at 0.5 µM: 93.4%
CDK7/cyclin H
  remaining activity at 0.5 µM: 81.7%
CK1g1
  remaining activity at 0.5 µM: 92.7%
DAPK1
  remaining activity at 0.5 µM: 65.2%
DDR1
  remaining activity at 0.5 µM: 1%
EPHB2; read-out: Residual enzymatic activity
  remaining activity at 0.5 µM: 69.5%
ERBB4/HER4
  remaining activity at 0.5 µM: 68.2%
GRK6
  remaining activity at 0.5 µM: 92.7%
HIPK2
  remaining activity at 0.5 µM: 94.9%
IKKb/IKBKB
  remaining activity at 0.5 µM: 53%
IKKe/IKBKE
  remaining activity at 0.5 µM: 16.1%
IRAK4
  remaining activity at 0.5 µM: 41.9%
LIMK1
  remaining activity at 0.5 µM: 7.2%
LYN B
  remaining activity at 0.5 µM: 14.5%
MAPKAPK2
  remaining activity at 0.5 µM: 106%
MAPKAPK3
  remaining activity at 0.5 µM: 102%
MELK
  remaining activity at 0.5 µM: 54.7%
NEK1
  remaining activity at 0.5 µM: 7%
PKAcg
  remaining activity at 0.5 µM: 91.7%
PKCiota
  remaining activity at 0.5 µM: 103%
PKCmu/PRKD1
  remaining activity at 0.5 µM: 82.1%
PKCzeta
  remaining activity at 0.5 µM: 105%
PKN2/PRK2
  remaining activity at 0.5 µM: 85.4%
SRMS
  remaining activity at 0.5 µM: 101%
VRK2
  remaining activity at 0.5 µM: 131%
